Laboratory results reported in patent US7074789B2, “Kinase inhibitors” (Amgen Inc., priority 1999, dated 2006).

How the values were obtained:
Assay type in all cases: biochemical
Itk = biological target: T1, Itk (Homo sapiens, UniProt Q08881); assay: Kinase inhibition assay (33P transfer), Itk; settings: Table 3; read-out: Itk-1
T1 construct: Kinases are expressed as either kinase domains or full length constructs; made in house
T1 sequence (Q08881 1-620): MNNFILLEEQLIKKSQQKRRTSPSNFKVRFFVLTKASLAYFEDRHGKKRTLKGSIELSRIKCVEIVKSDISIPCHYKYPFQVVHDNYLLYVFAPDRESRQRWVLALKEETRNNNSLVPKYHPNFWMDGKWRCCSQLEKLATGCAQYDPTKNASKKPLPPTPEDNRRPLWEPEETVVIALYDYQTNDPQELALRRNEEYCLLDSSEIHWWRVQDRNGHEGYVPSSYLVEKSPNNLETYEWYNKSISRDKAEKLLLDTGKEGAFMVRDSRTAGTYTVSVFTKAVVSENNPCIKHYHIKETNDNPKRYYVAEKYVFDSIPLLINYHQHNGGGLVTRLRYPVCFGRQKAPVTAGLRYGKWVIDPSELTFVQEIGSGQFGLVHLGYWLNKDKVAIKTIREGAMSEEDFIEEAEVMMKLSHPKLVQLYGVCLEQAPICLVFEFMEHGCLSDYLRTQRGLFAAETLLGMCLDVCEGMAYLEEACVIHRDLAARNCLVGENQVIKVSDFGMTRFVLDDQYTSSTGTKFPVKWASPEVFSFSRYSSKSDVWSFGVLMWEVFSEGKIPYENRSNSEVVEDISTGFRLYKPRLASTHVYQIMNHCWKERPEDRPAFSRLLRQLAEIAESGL
Outline: (§1)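 Activity read as 33P incorporation from ATP into poly(Glu,Tyr) 4:1 or poly(Arg,Ser) 3:1 substrate bound to microtiter plates, measured by scintillation after acid washing. Enzymes were affinity-purified GST or polyHis fusions (kinase domain or full length) from E. coli or baculovirus; IC50 = 50% reduction in labelled phosphate.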

Flt-1 = biological target: T2, Flt-1 (Homo sapiens, UniProt P17948); assay: Kinase inhibition assay (33P transfer), Flt-1
T2 construct: Kinases are expressed as either kinase domains or full length constructs; made in house
Outline: as §1

Tek = biological target: T3, Tek (Homo sapiens, UniProt Q02763); assay: Kinase inhibition assay (33P transfer), Tek; settings: read-out: Tek-1
T3 construct: Kinases are expressed as either kinase domains or full length constructs; made in house
T3 sequence (Q02763 23-1124, species assumed): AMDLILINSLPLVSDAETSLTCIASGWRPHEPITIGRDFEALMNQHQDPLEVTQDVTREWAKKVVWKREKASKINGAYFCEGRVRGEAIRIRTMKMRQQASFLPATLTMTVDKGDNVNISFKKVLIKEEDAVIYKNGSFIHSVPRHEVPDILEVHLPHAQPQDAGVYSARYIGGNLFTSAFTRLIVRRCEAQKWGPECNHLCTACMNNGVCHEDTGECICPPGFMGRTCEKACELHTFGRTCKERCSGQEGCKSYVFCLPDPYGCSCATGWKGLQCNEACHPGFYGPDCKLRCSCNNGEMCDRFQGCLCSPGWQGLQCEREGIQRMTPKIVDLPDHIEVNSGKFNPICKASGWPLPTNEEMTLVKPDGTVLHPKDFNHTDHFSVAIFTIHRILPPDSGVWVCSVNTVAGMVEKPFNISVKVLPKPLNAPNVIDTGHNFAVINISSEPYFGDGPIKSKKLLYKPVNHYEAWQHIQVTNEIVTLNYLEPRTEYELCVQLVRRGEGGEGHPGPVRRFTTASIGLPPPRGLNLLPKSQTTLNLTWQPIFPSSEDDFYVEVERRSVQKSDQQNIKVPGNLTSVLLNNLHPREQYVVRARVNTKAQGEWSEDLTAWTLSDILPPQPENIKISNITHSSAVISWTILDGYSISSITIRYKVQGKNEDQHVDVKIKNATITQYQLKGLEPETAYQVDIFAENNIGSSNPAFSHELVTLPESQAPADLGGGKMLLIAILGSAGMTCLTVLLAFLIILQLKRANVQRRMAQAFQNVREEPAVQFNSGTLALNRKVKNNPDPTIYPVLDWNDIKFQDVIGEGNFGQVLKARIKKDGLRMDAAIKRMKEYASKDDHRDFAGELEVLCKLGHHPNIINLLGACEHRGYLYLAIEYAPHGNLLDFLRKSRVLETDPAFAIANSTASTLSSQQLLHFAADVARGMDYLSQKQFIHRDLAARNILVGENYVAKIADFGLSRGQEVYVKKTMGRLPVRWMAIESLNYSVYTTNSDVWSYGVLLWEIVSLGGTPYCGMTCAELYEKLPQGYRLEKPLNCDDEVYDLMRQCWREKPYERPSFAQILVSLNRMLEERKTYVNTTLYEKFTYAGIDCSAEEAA
Outline: as §1

c-Met = biological target: T4, c-Met (Homo sapiens, UniProt P08581); assay: Kinase inhibition assay (33P transfer), c-Met; settings: Table 2, kinase inhibition class; read-out: Met-1
T4 construct: Kinases are expressed as either kinase domains or full length constructs; made in house
Outline: as §1

IGFR-1 = biological target: T5, IGFR-1 (Homo sapiens, UniProt P08069); assay: Kinase inhibition assay (33P transfer), IGFR-1; settings: Table 2, kinase inhibition class
T5 construct: Kinases are expressed as either kinase domains or full length constructs; made in house

PDGFRB = biological target: T6, PDGFRB (Homo sapiens, UniProt P09619); assay: Kinase inhibition assay (33P transfer), PDGFRB; settings: read-out: PDGFRB-1
T6 construct: Kinases are expressed as either kinase domains or full length constructs; made in house
T6 sequence (P09619 33-1106, species assumed): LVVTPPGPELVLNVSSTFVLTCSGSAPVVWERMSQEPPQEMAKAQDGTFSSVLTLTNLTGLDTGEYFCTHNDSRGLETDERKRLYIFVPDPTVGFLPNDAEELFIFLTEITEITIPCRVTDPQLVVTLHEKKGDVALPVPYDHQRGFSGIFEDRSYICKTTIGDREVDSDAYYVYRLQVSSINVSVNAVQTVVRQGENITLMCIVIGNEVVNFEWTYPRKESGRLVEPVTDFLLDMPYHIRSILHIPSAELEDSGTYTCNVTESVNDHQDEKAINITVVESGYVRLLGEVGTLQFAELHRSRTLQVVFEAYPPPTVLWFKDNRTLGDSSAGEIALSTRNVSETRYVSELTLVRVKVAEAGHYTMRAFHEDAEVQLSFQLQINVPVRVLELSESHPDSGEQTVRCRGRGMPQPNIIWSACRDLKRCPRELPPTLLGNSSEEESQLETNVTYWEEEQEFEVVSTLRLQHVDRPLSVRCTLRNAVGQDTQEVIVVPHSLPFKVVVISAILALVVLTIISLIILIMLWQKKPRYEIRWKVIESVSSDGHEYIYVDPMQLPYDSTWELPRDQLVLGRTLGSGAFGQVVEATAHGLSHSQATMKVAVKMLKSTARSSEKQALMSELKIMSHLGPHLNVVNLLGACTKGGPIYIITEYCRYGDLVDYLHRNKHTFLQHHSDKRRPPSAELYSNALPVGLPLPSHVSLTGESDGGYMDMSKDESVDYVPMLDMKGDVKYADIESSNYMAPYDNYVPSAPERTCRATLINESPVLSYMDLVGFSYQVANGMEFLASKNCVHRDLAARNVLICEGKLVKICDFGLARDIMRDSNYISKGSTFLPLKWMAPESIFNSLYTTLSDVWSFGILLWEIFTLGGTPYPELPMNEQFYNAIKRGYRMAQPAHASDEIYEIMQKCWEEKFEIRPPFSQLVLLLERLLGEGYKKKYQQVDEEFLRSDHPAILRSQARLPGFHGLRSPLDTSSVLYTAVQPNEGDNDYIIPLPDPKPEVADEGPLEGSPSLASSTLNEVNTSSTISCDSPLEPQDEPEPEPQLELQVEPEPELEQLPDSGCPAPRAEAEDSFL

EPHB4 = biological target: T7, EPHB4 (Homo sapiens, UniProt P54760); assay: Kinase inhibition assay (33P transfer), EPHB4; settings: read-out: EPHB4-1
T7 construct: Kinases are expressed as either kinase domains or full length constructs; made in house
T7 sequence (P54760 16-987): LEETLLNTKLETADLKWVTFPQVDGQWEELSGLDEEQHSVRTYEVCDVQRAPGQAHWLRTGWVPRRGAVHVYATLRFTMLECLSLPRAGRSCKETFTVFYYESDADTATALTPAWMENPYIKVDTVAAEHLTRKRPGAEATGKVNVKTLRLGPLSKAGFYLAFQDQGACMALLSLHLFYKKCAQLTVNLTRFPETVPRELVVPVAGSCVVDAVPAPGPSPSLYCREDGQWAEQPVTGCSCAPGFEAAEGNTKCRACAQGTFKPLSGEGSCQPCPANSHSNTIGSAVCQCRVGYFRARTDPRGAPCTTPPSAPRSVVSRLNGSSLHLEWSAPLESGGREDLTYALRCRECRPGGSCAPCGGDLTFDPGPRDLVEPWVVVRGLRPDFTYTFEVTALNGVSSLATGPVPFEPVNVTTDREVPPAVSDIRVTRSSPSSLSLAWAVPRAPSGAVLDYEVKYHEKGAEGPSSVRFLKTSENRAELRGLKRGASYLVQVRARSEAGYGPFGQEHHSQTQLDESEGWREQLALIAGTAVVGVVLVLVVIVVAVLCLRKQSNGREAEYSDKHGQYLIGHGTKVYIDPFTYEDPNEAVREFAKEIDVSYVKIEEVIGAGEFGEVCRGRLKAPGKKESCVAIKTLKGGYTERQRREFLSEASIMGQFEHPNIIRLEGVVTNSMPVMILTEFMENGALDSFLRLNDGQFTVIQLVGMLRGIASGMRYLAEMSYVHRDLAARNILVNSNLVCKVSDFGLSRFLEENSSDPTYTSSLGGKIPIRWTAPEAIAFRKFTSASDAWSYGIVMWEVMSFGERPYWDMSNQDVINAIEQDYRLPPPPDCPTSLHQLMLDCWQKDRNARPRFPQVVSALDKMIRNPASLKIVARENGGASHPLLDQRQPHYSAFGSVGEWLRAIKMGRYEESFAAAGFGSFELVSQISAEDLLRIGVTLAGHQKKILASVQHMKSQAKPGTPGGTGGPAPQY

ErbB4 = biological target: T8, ErbB4 (Homo sapiens, UniProt Q15303); assay: Kinase inhibition assay (33P transfer), ErbB4; settings: read-out: ErbB4-1
T8 construct: Kinases are expressed as either kinase domains or full length constructs; made in house
T8 sequence (Q15303 26-1308, species assumed): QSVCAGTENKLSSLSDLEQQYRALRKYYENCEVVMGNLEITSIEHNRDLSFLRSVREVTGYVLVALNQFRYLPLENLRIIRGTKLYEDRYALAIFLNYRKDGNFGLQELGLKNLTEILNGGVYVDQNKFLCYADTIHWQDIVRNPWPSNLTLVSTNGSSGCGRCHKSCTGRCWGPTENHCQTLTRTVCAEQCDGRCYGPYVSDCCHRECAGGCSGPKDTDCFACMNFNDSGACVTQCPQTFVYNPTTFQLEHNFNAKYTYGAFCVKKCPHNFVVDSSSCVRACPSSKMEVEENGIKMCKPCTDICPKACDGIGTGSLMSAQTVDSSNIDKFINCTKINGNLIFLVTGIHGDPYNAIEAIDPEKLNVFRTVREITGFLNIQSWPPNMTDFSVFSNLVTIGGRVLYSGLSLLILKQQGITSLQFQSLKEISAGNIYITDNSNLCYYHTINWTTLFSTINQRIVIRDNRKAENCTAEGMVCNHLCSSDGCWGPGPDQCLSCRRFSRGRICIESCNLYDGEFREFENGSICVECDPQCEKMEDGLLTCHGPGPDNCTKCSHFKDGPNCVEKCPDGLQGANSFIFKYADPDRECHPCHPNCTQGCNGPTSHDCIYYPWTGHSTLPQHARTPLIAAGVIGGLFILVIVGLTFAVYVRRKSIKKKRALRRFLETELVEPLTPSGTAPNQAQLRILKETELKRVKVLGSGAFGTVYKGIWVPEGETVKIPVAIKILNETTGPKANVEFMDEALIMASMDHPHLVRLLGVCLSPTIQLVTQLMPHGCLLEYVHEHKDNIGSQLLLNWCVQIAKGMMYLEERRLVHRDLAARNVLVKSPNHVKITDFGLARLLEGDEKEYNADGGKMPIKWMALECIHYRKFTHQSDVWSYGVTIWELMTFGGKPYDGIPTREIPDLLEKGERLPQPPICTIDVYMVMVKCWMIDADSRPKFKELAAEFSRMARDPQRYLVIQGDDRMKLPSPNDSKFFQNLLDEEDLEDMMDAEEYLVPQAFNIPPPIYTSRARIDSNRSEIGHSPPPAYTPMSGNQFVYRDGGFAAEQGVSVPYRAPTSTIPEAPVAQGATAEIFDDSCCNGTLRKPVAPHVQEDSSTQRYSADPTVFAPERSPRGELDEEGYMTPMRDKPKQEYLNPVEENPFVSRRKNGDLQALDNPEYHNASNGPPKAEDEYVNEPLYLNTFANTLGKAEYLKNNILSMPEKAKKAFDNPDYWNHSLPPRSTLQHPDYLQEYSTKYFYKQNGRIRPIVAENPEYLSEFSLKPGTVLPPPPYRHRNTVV

FGFR1 = biological target: T9, FGFR1 (Homo sapiens, UniProt P11362); assay: Kinase inhibition assay (33P transfer), FGFR1; settings: read-out: FGFR1-1
T9 construct: Kinases are expressed as either kinase domains or full length constructs; made in house
T9 sequence (P11362 22-822, species assumed): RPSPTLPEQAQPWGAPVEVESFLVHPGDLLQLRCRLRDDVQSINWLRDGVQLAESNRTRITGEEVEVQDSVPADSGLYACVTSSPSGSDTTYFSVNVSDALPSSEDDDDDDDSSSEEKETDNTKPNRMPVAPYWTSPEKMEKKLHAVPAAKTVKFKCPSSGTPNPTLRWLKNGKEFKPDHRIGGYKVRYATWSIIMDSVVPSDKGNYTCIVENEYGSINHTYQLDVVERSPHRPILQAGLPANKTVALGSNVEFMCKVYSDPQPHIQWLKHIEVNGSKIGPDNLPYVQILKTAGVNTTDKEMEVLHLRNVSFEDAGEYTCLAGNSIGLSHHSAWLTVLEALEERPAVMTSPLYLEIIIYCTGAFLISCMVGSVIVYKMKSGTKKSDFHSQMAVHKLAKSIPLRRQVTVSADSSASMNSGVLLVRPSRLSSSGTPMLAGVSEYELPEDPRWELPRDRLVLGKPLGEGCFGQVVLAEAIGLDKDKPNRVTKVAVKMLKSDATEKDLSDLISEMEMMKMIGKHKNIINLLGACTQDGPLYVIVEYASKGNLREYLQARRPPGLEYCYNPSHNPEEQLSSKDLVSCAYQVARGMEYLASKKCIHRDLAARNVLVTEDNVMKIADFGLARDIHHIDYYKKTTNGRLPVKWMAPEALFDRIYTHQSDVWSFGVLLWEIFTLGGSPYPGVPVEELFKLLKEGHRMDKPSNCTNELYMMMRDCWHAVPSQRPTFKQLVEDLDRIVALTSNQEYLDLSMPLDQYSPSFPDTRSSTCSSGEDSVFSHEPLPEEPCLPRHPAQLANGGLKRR

| IC50 (Itk) | IC50 (Flt-1) | IC50 (Tek) | IC50 (c-Met) | IC50 (IGFR-1) | IC50 (PDGFRB) | IC50 (EPHB4) | IC50 (ErbB4) | IC50 (FGFR1) | Compound |
| --- | --- | --- | --- | --- | --- | --- | --- | --- | --- |
| 0.963 to 5.78 µM | > 10.8 µM | > 10.8 µM | < 0.963 µM | 8.42 to 10.8 µM | > 10.8 µM | > 10.8 µM | 0.963 to 5.78 µM | > 10.8 µM | COc1ccc(Nc2ncnc(Nc3ccc(Oc4ccccc4)cc3)n2)cc1OC [Compound 929] |
| > 10.6 µM | > 10.6 µM | > 10.6 µM | 5.64 to 8.23 µM | > 10.6 µM | > 10.6 µM | > 10.6 µM | > 10.6 µM | > 10.6 µM | COc1ccc(Nc2ncnc(N(CC(=O)O)c3ccc4c(c3)OCO4)n2)cc1OC [Compound 320] |
| > 11.7 µM | 9.08 to 11.7 µM | > 11.7 µM | 6.23 to 9.08 µM | < 1.04 µM | < 1.04 µM | 1.04 to 6.23 µM | 6.23 to 9.08 µM | > 11.7 µM | COc1cc(Nc2ncnc(Nc3ccc(C)cc3F)n2)cc(OC)c1OC [Compound 937] |
| 5.14 to 7.5 µM | 0.857 to 5.14 µM | > 9.64 µM | > 9.64 µM | < 0.857 µM | < 0.857 µM | < 0.857 µM | 0.857 to 5.14 µM | 0.857 to 5.14 µM | COc1cc(Nc2ncnc(Nc3ccc(Br)c(Cl)c3)n2)cc(OC)c1OC [Compound 936] |
| > 8.93 µM | 4.76 to 6.94 µM | > 8.93 µM | > 8.93 µM | 6.94 to 8.93 µM | > 8.93 µM | > 8.93 µM | > 8.93 µM | 4.76 to 6.94 µM | COc1cc(Nc2ncnc(N(C/C=C/c3ccccc3)c3ccc(Cl)cc3)n2)cc(OC)c1OC [Compound 56] |
| > 9.48 µM | 5.06 to 7.38 µM | 0.843 to 5.06 µM | 5.06 to 7.38 µM | 0.843 to 5.06 µM | 0.843 to 5.06 µM | 5.06 to 7.38 µM | < 0.843 µM | 0.843 to 5.06 µM | COc1ccc(Nc2ccc(Nc3ncnc(Nc4cc(OC)c(OC)c(OC)c4)n3)cc2)cc1 [Compound 922] |
| 1.05 to 6.33 µM | < 1.05 µM | > 11.9 µM | < 1.05 µM | < 1.05 µM | 1.05 to 6.33 µM | 1.05 to 6.33 µM | 1.05 to 6.33 µM | < 1.05 µM | COc1ccc(Nc2ncnc(Nc3cc(-c4ccco4)n[nH]3)n2)cc1OC [Compound 337] |
| > 11 µM | > 11 µM | > 11 µM | > 11 µM | > 11 µM | 0.982 to 5.89 µM | > 11 µM | > 11 µM | > 11 µM | COc1cc(Nc2ncnc(-n3ccc4c(OC)cccc43)n2)cc(OC)c1OC [Compound 238] |
| > 13.3 µM | > 13.3 µM | > 13.3 µM | > 13.3 µM | 7.11 to 10.4 µM | 1.19 to 7.11 µM | > 13.3 µM | 10.4 to 13.3 µM | 1.19 to 7.11 µM | COc1ccc(Nc2ncnc(Nc3cccc(C)c3)n2)cc1OC [Compound 108] |
| > 9.97 µM | > 9.97 µM | > 9.97 µM | > 9.97 µM | < 0.886 µM | > 9.97 µM | > 9.97 µM | > 9.97 µM | 0.886 to 5.32 µM | COCCOc1ccc(Nc2ncnc(-n3c(N)nc4ccccc43)n2)cc1OCCOC [Compound 302] |
| 7.59 to 11.1 µM | < 1.26 µM | > 14.2 µM | 11.1 to 14.2 µM | 1.26 to 7.59 µM | < 1.26 µM | 11.1 to 14.2 µM | 1.26 to 7.59 µM | < 1.26 µM | Cc1cccc(Nc2ncnc(Nc3ccc4[nH]ccc4c3)n2)c1 [Compound 110] |
| > 13 µM | > 13 µM | > 13 µM | > 13 µM | 1.15 to 6.91 µM | > 13 µM | > 13 µM | > 13 µM | > 13 µM | C#Cc1cccc(Nc2ncnc(Nc3ccc(OC)c(OC)c3)n2)c1 [Compound 116] |
| > 10.9 µM | 0.971 to 5.83 µM | > 10.9 µM | > 10.9 µM | > 10.9 µM | < 0.971 µM | > 10.9 µM | > 10.9 µM | > 10.9 µM | COc1cc(Nc2ncnc(-n3ccc4cc(Cl)ccc43)n2)cc(OC)c1OC [Compound 198] |
| 6.28 to 9.15 µM | 1.05 to 6.28 µM | > 11.8 µM | > 11.8 µM | 1.05 to 6.28 µM | < 1.05 µM | 1.05 to 6.28 µM | 1.05 to 6.28 µM | 1.05 to 6.28 µM | COc1cc(Nc2ncnc(Nc3ccc(C)c(N)c3)n2)cc(OC)c1OC [Compound 935] |
| 7.77 to 9.99 µM | 0.888 to 5.33 µM | 7.77 to 9.99 µM | 5.33 to 7.77 µM | 0.888 to 5.33 µM | 0.888 to 5.33 µM | 0.888 to 5.33 µM | > 9.99 µM | 5.33 to 7.77 µM | COc1cc(Nc2ncnc(Nc3ccc(Br)cc3F)n2)cc(OC)c1OC [Compound 41] |
| > 10.5 µM | 0.935 to 5.61 µM | 8.18 to 10.5 µM | 0.935 to 5.61 µM | 5.61 to 8.18 µM | < 0.935 µM | 0.935 to 5.61 µM | 0.935 to 5.61 µM | 0.935 to 5.61 µM | C=CCN(c1ccc(Cl)cc1)c1ncnc(Nc2cc(OC)c(OC)c(OC)c2)n1 [Compound 972] |
| > 9.84 µM | > 9.84 µM | 5.25 to 7.65 µM | 5.25 to 7.65 µM | > 9.84 µM | > 9.84 µM | 5.25 to 7.65 µM | 7.65 to 9.84 µM | > 9.84 µM | CCOc1ccc(Nc2ncnc(Nc3ccc(OCc4ccccc4)cc3)n2)cc1OCC [Compound 170] |
| 1.36 to 8.18 µM | < 1.36 µM | > 15.3 µM | 8.18 to 11.9 µM | 1.36 to 8.18 µM | 1.36 to 8.18 µM | 1.36 to 8.18 µM | 8.18 to 11.9 µM | 1.36 to 8.18 µM | Cc1cccc(Nc2ncnc(Nc3ccc(O)cc3)n2)c1 [Compound 107] |
| 5.64 to 8.23 µM | < 0.94 µM | 5.64 to 8.23 µM | < 0.94 µM | < 0.94 µM | < 0.94 µM | < 0.94 µM | < 0.94 µM | 0.94 to 5.64 µM | COc1cc(Nc2ncnc(Nc3cc(-c4cccs4)n[nH]3)n2)cc(OC)c1OC [Compound 318] |
| > 9.31 µM | > 9.31 µM | > 9.31 µM | 7.24 to 9.31 µM | > 9.31 µM | 0.827 to 4.96 µM | > 9.31 µM | 4.96 to 7.24 µM | 7.24 to 9.31 µM | COc1cc(Nc2ncnc(-n3ccc4cc(OCc5ccccc5)ccc43)n2)cc(OC)c1OC [Compound 200] |
| 0.977 to 5.86 µM | < 0.977 µM | 5.86 to 8.55 µM | < 0.977 µM | < 0.977 µM | < 0.977 µM | < 0.977 µM | 0.977 to 5.86 µM | < 0.977 µM | COc1cc(Nc2ncnc(Nc3cc(-c4ccco4)n[nH]3)n2)cc(OC)c1OC [Compound 308] |
